Read-outs that look alike come from different tables or passages of the source.
Key:
Type in all cases: biochemical
MMP9 = MMP9 (Homo sapiens, UniProt P14780); experiment: MMP-9 colorimetric inhibition assay (Enzo kit BML-AK410); conditions: thiopeptide substrate, absorbance 415 nm; read-out: MMP 9 IC50 class
Summary of the method: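 Colorimetric thioester-substrate assay: hydrolysis of Ac-PLG-[2-mercapto-4-methylpentanoyl]-LG-OC2H5 frees a thiol that reacts with DTNB, read at 415 nm. Run per kit protocol. IC50 (nM) taken from inhibition curves of normalized values.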

MMP2 = target: T1, MMP2 (Homo sapiens, UniProt P08253); experiment: MMP-2 colorimetric inhibition assay (Enzo kit BML-AK408); conditions: thiopeptide substrate, absorbance 415 nm; read-out: MMP 2 IC50 class
T1 sequence (P08253 110-660): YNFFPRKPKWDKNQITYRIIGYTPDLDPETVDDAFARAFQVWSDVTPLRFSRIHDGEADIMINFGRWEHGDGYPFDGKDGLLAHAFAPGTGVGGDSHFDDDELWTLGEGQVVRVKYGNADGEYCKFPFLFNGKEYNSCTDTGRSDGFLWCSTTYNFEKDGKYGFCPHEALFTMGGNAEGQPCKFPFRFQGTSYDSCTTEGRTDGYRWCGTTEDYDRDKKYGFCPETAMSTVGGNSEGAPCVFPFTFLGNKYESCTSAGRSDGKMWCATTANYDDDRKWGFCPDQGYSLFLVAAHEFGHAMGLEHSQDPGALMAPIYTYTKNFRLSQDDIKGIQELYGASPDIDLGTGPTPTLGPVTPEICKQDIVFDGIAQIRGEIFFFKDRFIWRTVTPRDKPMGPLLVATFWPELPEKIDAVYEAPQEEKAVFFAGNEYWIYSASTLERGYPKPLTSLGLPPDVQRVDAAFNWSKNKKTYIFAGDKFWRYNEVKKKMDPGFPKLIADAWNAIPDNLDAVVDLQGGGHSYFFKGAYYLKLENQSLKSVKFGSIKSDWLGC
Summary of the method: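 Cleavage of the thiopeptide Ac-PLG-[2-mercapto-4-methylpentanoyl]-LG-OC2H5 releases a sulfhydryl that reacts with DTNB, read at 415 nm per the kit protocol. IC50 values (nM) come from inhibition curves of normalized data.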

MMP1 = target: T2, MMP1 (Homo sapiens, UniProt P03956); experiment: MMP-1 colorimetric inhibition assay (Enzo kit BML-AK404); conditions: thiopeptide substrate, absorbance 415 nm; read-out: MMP 1 IC50 class
T2 sequence (P03956 100-269 limits assumed): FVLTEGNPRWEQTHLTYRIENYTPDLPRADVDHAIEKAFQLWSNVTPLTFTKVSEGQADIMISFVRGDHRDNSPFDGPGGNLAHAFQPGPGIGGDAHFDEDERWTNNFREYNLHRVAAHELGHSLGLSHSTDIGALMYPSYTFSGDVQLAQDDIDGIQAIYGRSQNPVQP
Summary of the method: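 Colorimetric kit run per manufacturer protocol. MMP-1 cleaves a thiopeptide substrate (Ac-PLG-[2-mercapto-4-methylpentanoyl]-LG-OC2H5); released thiol reacts with DTNB, monitored at 415 nm. IC50 (nM) from inhibition curves of normalized values.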

ADAM10 = target: T3, ADAM10 (Homo sapiens, UniProt O14672); experiment: SensoLyte 520 ADAM10 fluorometric activity assay (AnaSpec AS-72226)
T3 construct: purchased AnaSpec, Inc. AS-72226
T3 sequence (O14672 214-748): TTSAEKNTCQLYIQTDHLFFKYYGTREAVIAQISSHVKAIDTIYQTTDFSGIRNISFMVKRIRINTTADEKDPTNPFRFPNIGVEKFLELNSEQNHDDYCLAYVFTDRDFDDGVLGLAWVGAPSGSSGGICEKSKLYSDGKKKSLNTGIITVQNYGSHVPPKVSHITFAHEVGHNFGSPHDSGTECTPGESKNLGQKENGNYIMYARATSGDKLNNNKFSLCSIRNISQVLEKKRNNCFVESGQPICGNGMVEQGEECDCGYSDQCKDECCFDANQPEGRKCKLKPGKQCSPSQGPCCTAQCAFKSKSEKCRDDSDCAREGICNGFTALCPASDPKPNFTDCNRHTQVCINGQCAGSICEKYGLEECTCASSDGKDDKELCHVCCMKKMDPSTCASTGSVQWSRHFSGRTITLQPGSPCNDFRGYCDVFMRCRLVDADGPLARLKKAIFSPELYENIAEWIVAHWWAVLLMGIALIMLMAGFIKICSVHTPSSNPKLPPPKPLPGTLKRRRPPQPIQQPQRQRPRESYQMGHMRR
Protocol: The inhibitory activities of the compounds of the invention were assessed in 96-well microplate format using MMP1, MMP2, MMP9 and MMP13 colorimetric assay kits and TACE fluorometric assay kit from Enzo Life Sciences, Inc. The inhibitory effect of the compounds of the invention on ADAM10 activity were evaluated in 96-well microplate format using fluorometric assay from AnaSpec, Inc.
SensoLyte® 520 ADAM10 Activity Assay Kit (catalog #AS-72226) is a complete assay system designed to screen ADAM10 inhibitors using FRET-based peptide substrate containing the 5-FAM/QXL™ 520 fluorophore/quencher pair. The fluorescence of 5-FAM is quenched by QXL™ 520 and recovered upon cleavage of the peptide by active ADAM10.
The inhibitory activity of the compounds of the invention against ADAM10 was tested according to the manufacturer's assay protocol and the fluorescence was monitored at excitation/emission wavelengths=495 nm/520 nm using Tecan Infinite® 200 Pro F Nano^+ microplate reader.
The normalized values were analyzed using GraphPadPrism 9 for Windows (GraphPad Software, San Diego, CA, USA) software by plotting inhibition curves and determining the IC50 values (in nM).

ADAM17 (TACE) = ADAM17 (TACE) (Homo sapiens, UniProt P78536); experiment: TACE fluorometric inhibition assay (Enzo kit BML-AK310); conditions: quenched fluorogenic peptide, ex/em 320/420 nm; read-out: TACE IC50 class
ADAM17 (TACE), sequence (P78536 215-477 limits assumed): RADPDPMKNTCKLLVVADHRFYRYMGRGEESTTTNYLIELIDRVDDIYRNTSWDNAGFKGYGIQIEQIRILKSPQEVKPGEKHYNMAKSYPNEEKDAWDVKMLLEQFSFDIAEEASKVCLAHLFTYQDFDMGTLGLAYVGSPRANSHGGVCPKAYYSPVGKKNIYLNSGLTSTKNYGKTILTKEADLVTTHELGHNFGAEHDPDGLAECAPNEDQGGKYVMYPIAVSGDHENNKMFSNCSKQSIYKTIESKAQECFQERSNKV
Summary of the method: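 Kit-based TACE assay run per manufacturer's protocol, using quenched fluorogenic peptide Mca-PLAQAV-Dpa-RSSSR-NH2 whose cleavage raises Mca fluorescence. Signal read at ex/em 320/420 nm; IC50 (nM) derived from inhibition curves of normalized values.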

MMP13 = target: T4, MMP13 (Homo sapiens, UniProt P45452); experiment: MMP-13 colorimetric inhibition assay (Enzo kit BML-AK412); conditions: thiopeptide substrate, absorbance 415 nm; read-out: MMP 13 IC50 class
T4 construct: purchased Enzo Life Sciences, Inc. BML-AK412
Summary of the method: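 Thiopeptide chromogenic substrate (Ac-PLG-[2-mercapto-4-methylpentanoyl]-LG-OC2H5); MMP-13 hydrolysis of the thioester yields a thiol that reacts with DTNB, read at 415 nm. IC50 values (nM) derived from inhibition curves of normalized data.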

[1] = FRET peptide substrate, ex/em 495/520 nm, read-out: ADAM 10 IC50 class

MMP9, sequence (P14780 94-707): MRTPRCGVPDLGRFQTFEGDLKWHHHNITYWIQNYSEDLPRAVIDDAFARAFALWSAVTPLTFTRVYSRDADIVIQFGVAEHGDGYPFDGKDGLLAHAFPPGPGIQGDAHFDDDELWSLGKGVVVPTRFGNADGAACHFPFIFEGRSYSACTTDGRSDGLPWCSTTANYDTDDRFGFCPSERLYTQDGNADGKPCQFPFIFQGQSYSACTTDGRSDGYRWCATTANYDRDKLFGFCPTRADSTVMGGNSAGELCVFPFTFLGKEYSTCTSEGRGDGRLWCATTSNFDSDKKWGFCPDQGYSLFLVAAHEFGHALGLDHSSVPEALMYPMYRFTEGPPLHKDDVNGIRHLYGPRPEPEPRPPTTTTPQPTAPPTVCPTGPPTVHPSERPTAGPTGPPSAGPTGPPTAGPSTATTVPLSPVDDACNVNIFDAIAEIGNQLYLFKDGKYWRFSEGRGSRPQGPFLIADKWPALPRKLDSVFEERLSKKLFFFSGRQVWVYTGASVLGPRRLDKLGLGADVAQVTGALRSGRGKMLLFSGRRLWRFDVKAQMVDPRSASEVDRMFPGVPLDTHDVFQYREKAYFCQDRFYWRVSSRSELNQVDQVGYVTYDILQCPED

Compound	IC50 (MMP9) [nM]	IC50 (MMP2) [nM]	IC50 (MMP1) [nM]	IC50 (ADAM10; [1]) [nM]	IC50 (ADAM17 (TACE)) [nM]	IC50 (MMP13) [nM]	IC50 (ADAM10) [nM]
COCCOC(=O)N1[C@@H]2CC[C@H]1[C@H](C(=O)NO)N(S(=O)(=O)c1ccc(Oc3ccc(OC(C)(C)C)cc3)nc1)C2 [Example 31, 2-methoxyethyl (1S,2R,5R)-3-((6-(4-(tert-butoxy)-phenoxy)pyridin-3-yl)sulfonyl)-2-(hydroxycarbamoyl)-3,8-diazabicyclo-[3.2.1]octane-8-carboxylate]	< 50	< 50	> 10000	> 10000	> 10000	< 50	–
COCCOC(=O)N1[C@@H]2CC[C@H]1[C@H](C(=O)NO)N(S(=O)(=O)c1ccc(Oc3ccc(C)cc3)nc1)C2 [Example 32, 2-methoxyethyl (1S,2R,5R)-2-(hydroxycarbamoyl)-3-((6-(p-tolyloxy)-pyridin-3-yl)-sulfonyl)-3,8-diazabicyclo[3.2.1]-octane-8-carboxylate]	< 50	< 50	50 to 1000	> 10000	1000 to 10000	< 50	–
CCc1ccc(Oc2ccc(S(=O)(=O)N3C[C@H]4CC[C@@H]([C@@H]3C(=O)NO)N4C(=O)OCCOC)cn2)cc1 [Example 33, 2-methoxyethyl (1S,2R,5R)-3-((6-(4-ethylphenoxy)pyridin-3-yl)sulfonyl)-2-(hydroxycarbamoyl)-3,8-diazabicyclo-[3.2.1]octane-8-carboxylate]	< 50	< 50	1000 to 10000	> 10000	1000 to 10000	< 50	–
COCCOC(=O)N1[C@@H]2CC[C@H]1[C@H](C(=O)NO)N(S(=O)(=O)c1ccc(Oc3ccc(OC)c(F)c3)nc1)C2 [Example 34, 2-methoxyethyl (1S,2R,5R)-3-((6-(3-fluoro-4-methoxy-phenoxy)pyridin-3-yl)sulfonyl)-2-(hydroxycarbamoyl)-3,8-diaza-bicyclo[3.2.1]octane-8-carboxylate]	< 50	< 50	1000 to 10000	1000 to 10000	1000 to 10000	< 50	–
COCCOC(=O)N1[C@@H]2CC[C@H]1[C@H](C(=O)NO)N(S(=O)(=O)c1ccc(Oc3cnn(C)c3)nc1)C2 [Example 36, 2-methoxyethyl (1S,2R,5R)-2-(hydroxycarbamoyl)-3-((6-((1-methyl-1H-pyrazol-4-yl)oxy)-pyridin-3-yl)-sulfonyl)-3,8-diazabicyclo[3.2.1]-octane-8-carboxylate]	< 50	< 50	< 50	1000 to 10000	50 to 1000	< 50	–
COCCOC(=O)N1[C@@H]2CC[C@H]1[C@H](C(=O)NO)N(S(=O)(=O)c1ccc(Oc3cnn(-c4ccccc4)c3)nc1)C2 [Example 39, 2-methoxyethyl (1S,2R,5R)-2-(hydroxycarbamoyl)-3-((6-((1-phenyl-1H-pyrazol-4-yl)oxy)-pyridin-3-yl)sulfonyl)-3,8-diazabicyclo-[3.2.1]octane-8-carboxylate]	< 50	< 50	50 to 1000	> 10000	50 to 1000	< 50	–
COCCOC(=O)N1[C@@H]2CC[C@H]1[C@H](C(=O)NO)N(S(=O)(=O)c1ccc(Oc3cnn(C)c3)c(F)c1)C2 [Example 41, 2-methoxyethyl (1S,2R,5R)-3-((3-fluoro-4-((1-methyl-1H-pyrazol-4-yl)oxy)phenyl)sulfonyl)-2-(hydroxycarbamoyl)-3,8-diazabicyclo[3.2.1]octane-8-carboxylate]	< 50	< 50	< 50	50 to 1000	50 to 1000	< 50	–
COCCOC(=O)N1[C@@H]2CC[C@H]1[C@H](C(=O)NO)N(S(=O)(=O)N1CCC(Oc3ccc(Cl)cc3)CC1)C2 [Example 44, (1S,2R,5R)-2-methoxyethyl 3-((4-(4-chlorophenoxy)piperidin-1-yl)sulfonyl)-2-(hydroxycarbamoyl)-3,8-diazabicyclo[3.2.1]octane-8-carboxylate]	< 50	< 50	50 to 1000	–	< 50	< 50	50 to 1000
COCCOC(=O)N1[C@@H]2CC[C@H]1[C@H](C(=O)NO)N(S(=O)(=O)N1CCC(Oc3ccc(F)cc3)CC1)C2 [Example 45, 2-methoxyethyl (1S,2R,5R)-3-((4-(4-fluoro-phenoxy)-piperidin-1-yl)-sulfonyl)-2-(hydroxy-carbamoyl)-3,8-diazabicyclo-[3.2.1]octane-8-carboxylate]	< 50	< 50	50 to 1000	1000 to 10000	50 to 1000	< 50	–
COCCOC(=O)N1[C@@H]2CC[C@H]1[C@H](C(=O)NO)N(S(=O)(=O)N1CCC(Oc3ccc(C(F)(F)F)cc3)CC1)C2 [Example 48, 2-methoxyethyl (1S,2R,5R)-2-(hydroxy-carbamoyl)-3-((4-(4-(trifluoromethyl)phenoxy)-piperidin-1-yl)-sulfonyl)-3,8-diazabicyclo-[3.2.1]octane-8-carboxylate]	< 50	< 50	1000 to 10000	–	< 50	< 50	50 to 1000
CC(=O)N1[C@@H]2CC[C@H]1[C@H](C(=O)NO)N(S(=O)(=O)c1ccc(Oc3ccc(F)cc3)nc1)C2 [Example 53, (1S,2R,5R)-8-acetyl-3-((6-(4-fluorophenoxy)pyridin-3-yl)sulfonyl)-N-hydroxy-3,8-diazabicyclo[3.2.1]octane-2-carboxamide]	< 50	< 50	50 to 1000	> 10000	1000 to 10000	< 50	–

— patent US20250215010A1, “DIAZABICYCLOOCTANE DERIVATIVES USEFUL AS MATRIX METALLOPROTEINASE INHIBITORS” (VASA THERAPEUTICS SPOLKA Z OGRANICZONA ODPOWIEDZIALNOSCIA, priority 2022, published 2025)
